≈ marks a conversion by molar mass, not a printed value.
Tests used:
[1] = Selectivity ratio of MIC for methicillin-resistant Staphylococcus aureus BAA-1707 to MIC for methicillin-resistant Staphylococcus epidermidis ATCC 35984; assay type: functional
[2] = tested on: Staphylococcus epidermidis; assay: Antibacterial activity against methicillin-resistant Staphylococcus epidermidis ATCC 35984 after 16 to 18 hrs by broth microdilution method; assay type: functional
Staphylococcus aureus [3] = assay: Antibacterial activity against methicillin-resistant Staphylococcus aureus BAA-1707 after 16 to 18 hrs by broth microdilution method; assay type: functional
Enterococcus faecium [4] = assay: Antibacterial activity against vancomycin-resistant Enterococcus faecium ATCC 700221 after 16 to 18 hrs by broth microdilution method; assay type: functional
HeLa = assay: Cytotoxicity against human HeLa cells after 24 hrs by LDH release assay; assay type: cell-based
[5] = Selectivity index, ratio of IC50 for cytotoxicity against human HeLa cells to MIC for antibacterial activity against methicillin-resistant Staphylococcus epidermidis ATCC 35984; assay type: toxicity, cell-based; settings: read-out: Selectivity Index
[6] = tested on: Staphylococcus epidermidis; assay: Potency index, ratio of TPEN MIC to compound MIC for antibacterial activity against methicillin-resistant Staphylococcus epidermidis ATCC 35984; assay type: functional
Staphylococcus aureus [7] = assay: Potency index, ratio of TPEN MIC to compound MIC for antibacterial activity against methicillin-resistant Staphylococcus aureus BAA-1707; assay type: functional
[8] = tested on: Staphylococcus epidermidis; assay: Bactericidal activity against methicillin-resistant Staphylococcus epidermidis ATCC 35984 planktonic cells after 24 hrs by CBD assay; assay type: functional; settings: ATCC 35984, 24 h
[9] = tested on: Staphylococcus epidermidis; assay: Antibiofilm activity against methicillin-resistant Staphylococcus epidermidis ATCC 35984 after 24 hrs by CBD assay; assay type: functional
Staphylococcus aureus [10] = assay: Bactericidal activity against methicillin-resistant Staphylococcus aureus BAA-1707 planktonic cells after 24 hrs by CBD assay; assay type: functional; settings: BAA-1707, 24 h
Staphylococcus aureus [11] = assay: Antibiofilm activity against methicillin-resistant Staphylococcus aureus BAA-1707 after 24 hrs by CBD assay; assay type: functional
Enterococcus faecium [12] = assay: Bactericidal activity against vancomycin-resistant Enterococcus faecium ATCC 700221 planktonic cells after 24 hrs by CBD assay; assay type: functional; settings: ATCC 700221, 24 h
Enterococcus faecium [13] = assay: Antibiofilm activity against vancomycin-resistant Enterococcus faecium ATCC 700221 after 24 hrs by CBD assay; assay type: functional
[14] = Hemolytic activity against human RBC at 200 uM after 1 hr relative to control; assay type: ADME, cell-based, Erythrocyte; settings: red blood cells (erythrocytes), read-out: Activity
[15] = Selectivity ratio of MIC for vancomycin-resistant Enterococcus faecium ATCC 700221 to MIC for methicillin-resistant Staphylococcus epidermidis ATCC 35984; assay type: functional

Row | Structure (SMILES) | Selectivity ratio [1] | MIC [2] [µM] | MIC (Staphylococcus aureus [3]) [µM] | MIC (Enterococcus faecium [4]) [µM] | IC50 (HeLa) [µM] | selectivity ratio [5] | Ratio [6] | Ratio (Staphylococcus aureus [7]) | MBC [8] [µM] | MBEC [9] [µM] | MBC (Staphylococcus aureus [10]) [µM] | MBEC (Staphylococcus aureus [11]) [µM] | MBC (Enterococcus faecium [12]) [µM] | MBEC (Enterococcus faecium [13]) [µM] | hemolysis at 1 h, 200 µM [14] [%] | Selectivity ratio [15]
1 | COCCOCCOCc1ccc2c(Br)cc(Br)c(O)c2n1 | > 2 | 0.78 (≈ 0.339 µg/mL) | 2.35 (≈ 1.02 µg/mL) | 3.13 (≈ 1.36 µg/mL) | > 100 | > 128 | 16 - 42 | 16 - 42 | 25 (≈ 10.9 µg/mL) | 75 | 50 (≈ 21.8 µg/mL) | 200 | 6.25 (≈ 2.72 µg/mL) | 2.35 | 4.1 | > 2
2 | C[C@H](NC(=O)OC(C)(C)C)C(=O)N1CCN(Cc2ccc3c(Br)cc(Br)c(O)c3n2)CC1 |  | 3.13 (≈ 1.79 µg/mL) | 3.13 (≈ 1.79 µg/mL) | 6.25 (≈ 3.58 µg/mL) |  |  |  |  |  |  |  |  |  |  |  | 
3 | Oc1c(Br)cc(Br)c2ccc(CN3CCNCC3)nc12 |  | 12.5 (≈ 5.01 µg/mL) | 25 (≈ 10 µg/mL) | 50 (≈ 20.1 µg/mL) |  |  |  |  |  |  |  |  |  |  |  | 
4 | Oc1c(Br)cc(Br)c2ccc(CNc3ccccc3)nc12 |  | 0.15 (≈ 0.0612 µg/mL) | 0.39 (≈ 0.159 µg/mL) | 0.78 (≈ 0.318 µg/mL) | 100 | 667 |  |  |  |  |  |  |  |  |  | 
5 | OCc1cn(Cc2ccc3c(Br)cc(Br)c(O)c3n2)nn1 |  | > 100 | > 100 | > 100 |  |  |  |  |  |  |  |  |  |  |  | 
6 | Oc1c(Br)cc(Br)c2ccc(CN3CCOCC3)nc12 | > 2 | 0.59 (≈ 0.237 µg/mL) | 1.56 (≈ 0.627 µg/mL) | 3.13 (≈ 1.26 µg/mL) | > 100 | > 169 | 16 - 42 | 16 - 42 | 4.69 (≈ 1.89 µg/mL) | 2.35 | 25 (≈ 10.1 µg/mL) | >200 | 1.56 (≈ 0.627 µg/mL) | 1.17 | 2.6 | > 2
7 | COCCOCCOCCOCc1ccc2c(Br)cc(Br)c(O)c2n1 |  | 2.35 (≈ 1.13 µg/mL) | 2.35 (≈ 1.13 µg/mL) |  | 100 |  |  |  |  |  |  |  |  |  |  | 
8 | CC(C)(C)OC(=O)NCCOCCOCCNCc1ccc2c(Br)cc(Br)c(O)c2n1 |  | 3.13 (≈ 1.76 µg/mL) | 12.5 (≈ 7.04 µg/mL) | 6.25 (≈ 3.52 µg/mL) |  |  |  |  |  |  |  |  |  |  |  | 
9 | c1ccc(CN(CCN(Cc2ccccn2)Cc2ccccn2)Cc2ccccn2)nc1 |  | 12.5 (≈ 5.31 µg/mL) | 46.9 (≈ 19.9 µg/mL) |  |  |  |  |  | 250 (≈ 106 µg/mL) | >2000 | 375 (≈ 159 µg/mL) | >2000 |  |  | ≤ 1 | 
10 | OCc1ccc2c(Br)cc(Br)c(O)c2n1 |  | 37.5 (≈ 12.5 µg/mL) | 100 (≈ 33.3 µg/mL) | 25 (≈ 8.32 µg/mL) | > 100 | > 2.7 |  |  |  |  |  |  |  |  |  | 
11 | CCCCCCCCCC(=O)N[C@@H](Cc1c[nH]c2ccccc12)C(=O)N[C@@H](CC(N)=O)C(=O)N[C@@H](CC(=O)O)C(=O)N[C@@H]1C(=O)NCC(=O)N[C@@H](CCCN)C(=O)N[C@@H](CC(=O)O)C(=O)N[C@H](C)C(=O)N[C@@H](CC(=O)O)C(=O)NCC(=O)N[C@H](CO)C(=O)N[C@@H]([C@H](C)CC(=O)O)C(=O)N[C@@H](CC(=O)c2ccccc2N)C(=O)O[C@@H]1C [DAPTOMYCIN] |  | 12.5 (≈ 20.3 µg/mL) | 3.13 (≈ 5.07 µg/mL) | 3.13 (≈ 5.07 µg/mL) |  |  |  |  |  |  |  |  |  |  |  | 
12 | CN[C@H](CC(C)C)C(=O)N[C@H]1C(=O)N[C@@H](CC(N)=O)C(=O)N[C@H]2C(=O)N[C@H]3C(=O)N[C@H](C(=O)N[C@H](C(=O)O)c4cc(O)cc(O)c4-c4cc3ccc4O)[C@H](O)c3ccc(c(Cl)c3)Oc3cc2cc(c3O[C@@H]2O[C@H](CO)[C@@H](O)[C@H](O)[C@H]2O[C@H]2C[C@](C)(N)[C@H](O)[C@H](C)O2)Oc2ccc(cc2Cl)[C@H]1O [VANCOMYCIN] |  |  |  | > 100 |  |  |  |  | 3 (≈ 4.35 µg/mL) | >2000 | 3.9 (≈ 5.65 µg/mL) | >2000 | > 200 | 150 | ≤ 1 | 
13 | CCCc1ccc2c(Br)cc(Br)c(O)c2n1 |  | 0.59 (≈ 0.204 µg/mL) | 0.39 (≈ 0.135 µg/mL) | 0.78 (≈ 0.269 µg/mL) | > 50 | > 85 |  |  |  |  |  |  |  |  |  | 
14 | Cc1ccc2c(Br)cc(Br)c(O)c2n1 [BROQUINALDOL] |  | 1.17 (≈ 0.371 µg/mL) |  | 3.13 (≈ 0.992 µg/mL) | > 100 |  |  |  |  |  |  |  |  |  |  | 
15 | CC(C)(C)OC(=O)N1CCN(Cc2ccc3c(Br)cc(Br)c(O)c3n2)CC1 |  | 0.3 (≈ 0.15 µg/mL) | 0.78 (≈ 0.391 µg/mL) | 0.59 (≈ 0.296 µg/mL) | > 100 | > 333 |  |  | 37.5 (≈ 18.8 µg/mL) | 6.25 | 18.8 (≈ 9.42 µg/mL) | 18.8 | 4.69 (≈ 2.35 µg/mL) | 1.56 | 2.8 | 
16 | CCCNCc1ccc2c(Br)cc(Br)c(O)c2n1 |  |  | 2.35 (≈ 0.879 µg/mL) | 3.13 (≈ 1.17 µg/mL) | > 100 |  |  |  |  |  |  |  |  |  |  | 
17 | NCCOCCOCCNCc1ccc2c(Br)cc(Br)c(O)c2n1 |  | 25 (≈ 11.6 µg/mL) | 37.5 (≈ 17.4 µg/mL) | 50 (≈ 23.2 µg/mL) |  |  |  |  |  |  |  |  |  |  |  | 
18 | CC(=O)NC[C@H]1CN(c2ccc(N3CCOCC3)c(F)c2)C(=O)O1 [LINEZOLID] |  | 3.13 (≈ 1.06 µg/mL) | 12.5 (≈ 4.22 µg/mL) | 3.13 (≈ 1.06 µg/mL) |  |  |  |  |  |  |  |  |  |  |  | 
19 | CCCCOCc1ccc2c(Br)cc(Br)c(O)c2n1 | > 2 | 0.3 (≈ 0.117 µg/mL) | 2.35 (≈ 0.914 µg/mL) | 12.5 (≈ 4.86 µg/mL) | > 50 | > 167 | 16 - 42 | 16 - 42 | 37.5 (≈ 14.6 µg/mL) | 75 |  |  |  |  | 2.8 | > 2
20 | CC(C)(C)OC(=O)NCC(=O)N1CCN(Cc2ccc3c(Br)cc(Br)c(O)c3n2)CC1 |  | 9.38 (≈ 5.24 µg/mL) | 25 (≈ 14 µg/mL) | 12.5 (≈ 6.98 µg/mL) |  |  |  |  |  |  |  |  |  |  |  | 
21 | COCCOCc1ccc2c(Br)cc(Br)c(O)c2n1 |  | 1.56 (≈ 0.61 µg/mL) |  |  | > 100 |  |  |  |  |  |  |  |  |  |  | 
22 | C#CCNCc1ccc2c(Br)cc(Br)c(O)c2n1 | > 2 | 0.3 (≈ 0.111 µg/mL) | 3.13 (≈ 1.16 µg/mL) | 1.56 (≈ 0.577 µg/mL) | > 25 | > 83 | 16 - 42 | 16 - 42 |  |  |  |  |  |  |  | > 2

Source: ChEMBL document CHEMBL4152318, “Halogenated quinolines bearing polar functionality at the 2-position: Identification of new antibacterial agents with enhanced activity against Staphylococcus epidermidis” (Eur J Med Chem, 2018)
